Reference: publication PMC11845477, “Exploring the principles behind antibiotics with limited resistance” (Nature Communications, 2025)

What was measured:
[1] = tested on: E. coli ATCC 25922 (SEN) and E. coli NCTC13846 (MDR); assay: Frequency-of-resistance (FoR) assay, relative MIC of mutants; assay type: cell-based, Escherichia coli; conditions: for MIC: Escherichia coli
Procedure: (§1) The susceptibility of antibiotics to resistance development was evaluated in two strains of each bacterial species: a multidrug-resistant strain and an antibiotic-sensitive strain of Escherichia coli, Klebsiella pneumoniae, Acinetobacter baumannii, and Pseudomonas aeruginosa. To explore first-step resistance, we previously used a standard protocol for spontaneous frequency-of-resistance analysis (FoR assay) at multiple concentrations of each antibiotic[10],[28],[31]–[33]. […] For all other combinations, approximately 10^10 bacterial cells were exposed to one of each antibiotic on agar plates for two days at concentrations where the given strain is susceptible. We examined resistance levels by contrasting the minimum inhibitory concentration (MICs) of the mutated strains to the original wild-type bacterial strain (i.e., relative MIC).
(§2) To estimate the frequency of spontaneous mutations that confer resistance in a microbial population, we conducted a frequency of resistance (FoR) assay following established protocols[10],[31]–[33]. […] Prior to plating, bacteria were grown overnight in MHB medium at 37 °C and 250 RPM, then centrifuged and washed in MHB. All experiments were performed in triplicate, and plates were incubated at 37 °C for 48 hours. Total colony-forming units (CFUs) were determined by plating appropriate dilutions onto antibiotic-free MHB agar. Resistance frequencies were calculated by dividing the number of resistant colonies by the initial viable cell count. From the plates with the highest antibiotic concentration, ten colonies were selected for MIC determination and whole-genome sequencing.
(§3) A robotic liquid handling system was used to automatically prepare a 11 to 16-step serial dilution in 384-well microtiter plates (Greiner). A final concentration of 5 × 10^5 bacterial cells per mL were inoculated into each well containing 60 µL MHB medium. Bacterial cultures were incubated at 37 °C with continuous shaking (Infors shaker, 900 rpm with 3 mm throw) for 18 hours (2 replicates from each). Cell growth was monitored by measuring the optical density (OD600 values, using Biotek Synergy microplate reader). MIC was defined as the antibiotic concentration of complete growth inhibition (i.e., OD600 < 0.05). Relative MIC was calculated as follows:1 relativeMIC=MICevolved/MICancestor […]
(§4) Supplementary Figure 3. Resistance levels following the frequency of resistance assay across bacterial strains. The level of resistance was measured as the fold change in relative MIC between evolved and ancestral strains. Data are grouped by bacterial strain (A. baumannii (AB), E. coli (EC), K. pneumoniae (KP), and P. aeruginosa (PA)) and categorized as either multidrug-resistant (MDR) or sensitive (SEN). Each data point represents a laboratory evolved line, and boxplots show the median, first and third quartiles, with whiskers indicating the 5th and 95th percentiles. […]
(§5) analysis was performed using two-sided Dunn’s post-hoc test with Benjamini-Hochberg correction for multiple comparisons (**/ * indicates p < 0.01/ 0.05). For detailed information on antibiotic and bacterial species, see Supplementary Table 1. For mode of action groups, refer to Table 1. Source data are provided as a Source Data file.

[2] = tested on: E. coli ATCC 25922 (SEN) and E. coli NCTC13846 (MDR); assay: microbe, parasite or virus in culture; assay type: cell-based, Escherichia coli; conditions: for MIC: Escherichia coli, across three biological replicates
Method in brief: (§6)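 Broth microdilution in cation-adjusted Mueller-Hinton Broth 2 (except SCH79797), 11–16-step serial dilutions, 5 × 10^5 cells/mL, 37 °C with shaking for 18 h, 2 replicates. MIC is the lowest concentration giving complete growth inhibition (OD600 < 0.05); relative MIC = MIC evolved/MIC ancestor.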

[3] = tested on: A. baumannii ATCC 17978 (SEN) and A. baumannii ATCC BAA-1605 (MDR); assay: microbe, parasite or virus in culture; assay type: cell-based, Acinetobacter baumannii; conditions: for MIC: Acinetobacter baumannii, across three biological replicates
Method in brief: as §6

[4] = tested on: K. pneumoniae ATCC 10031 (SEN) and K. pneumoniae ATCC 700603 (MDR); assay: microbe, parasite or virus in culture; assay type: cell-based, Klebsiella pneumoniae; conditions: for MIC: Klebsiella pneumoniae, across three biological replicates
Method in brief: as §6

[5] = tested on: A. baumannii ATCC 17978 (SEN) and A. baumannii ATCC BAA-1605 (MDR); assay: Frequency-of-resistance (FoR) assay, relative MIC of mutants; assay type: cell-based, Acinetobacter baumannii; conditions: for MIC: Acinetobacter baumannii
Procedure: as §1, §2, §3, §4, §5

[6] = tested on: P. aeruginosa ATCC BAA-3107 (SEN) and P. aeruginosa LESB58 (MDR); assay: microbe, parasite or virus in culture; assay type: cell-based, Pseudomonas aeruginosa; conditions: for MIC: Pseudomonas aeruginosa, across three biological replicates
Method in brief: as §6

[7] = E. coli NCTC 13846 (EC-MDR), evolved line 1, evolved vs ancestor
[8] = E. coli NCTC 13846 (EC-MDR), evolved line 2, evolved vs ancestor
[9] = E. coli NCTC 13846 (EC-MDR), evolved line 3, evolved vs ancestor
[10] = Escherichia coli ATCC 25922 (EC-SEN), evolved line 1 versus ancestor
[11] = Escherichia coli ATCC 25922 (EC-SEN), evolved line 2 versus ancestor
[12] = Escherichia coli ATCC 25922 (EC-SEN), evolved line 3 versus ancestor
[13] = read-out: MIC of evolved line, E. coli NCTC 13846 (EC-MDR), evolved line 1
[14] = read-out: MIC of evolved line, E. coli NCTC 13846 (EC-MDR), evolved line 3
[15] = read-out: MIC of evolved line, Escherichia coli ATCC 25922 (EC-SEN), evolved line 1
[16] = read-out: MIC of evolved line, Escherichia coli ATCC 25922 (EC-SEN), evolved line 2
[17] = read-out: MIC of evolved line, Escherichia coli ATCC 25922 (EC-SEN), evolved line 3
[18] = E. coli NCTC 13846 (EC-MDR), ancestor strain, sheet fig 2a
[19] = EC-SEN, Escherichia coli ATCC 25922, ancestor strain
[20] = Escherichia coli ATCC 25922 (EC-SEN), ancestor strain, sheet fig 2a
[21] = Escherichia coli ATCC 25922 (EC-SEN)
[22] = Escherichia coli NCTC 13846 (EC-MDR)
[23] = Acinetobacter baumannii ATCC 17978 (AB-SEN), ancestor strain, sheet fig 2a
[24] = Acinetobacter baumannii ATCC 17978 (AB-SEN)
[25] = Acinetobacter baumannii ATCC BAA-1605 (AB-MDR)
[26] = Klebsiella pneumoniae ATCC 10031 (KP-SEN), ancestor strain, sheet fig 2a
[27] = Klebsiella pneumoniae ATCC 10031 (KP-SEN)
[28] = Klebsiella pneumoniae ATCC 700603 (KP-MDR)
[29] = Acinetobacter baumannii ATCC 17978 (AB-SEN), evolved line 1 versus ancestor
[30] = Acinetobacter baumannii ATCC 17978 (AB-SEN), evolved line 2 versus ancestor
[31] = Acinetobacter baumannii ATCC 17978 (AB-SEN), evolved line 3 versus ancestor
[32] = read-out: MIC of evolved line, Acinetobacter baumannii ATCC 17978 (AB-SEN), evolved line 1
[33] = read-out: MIC of evolved line, Acinetobacter baumannii ATCC 17978 (AB-SEN), evolved line 2
[34] = read-out: MIC of evolved line, Acinetobacter baumannii ATCC 17978 (AB-SEN), evolved line 3
[35] = P. aeruginosa ATCC BAA 3107 (PA-SEN), ancestor strain, sheet fig 2a
[36] = PA-SEN, Pseudomonas aeruginosa ATCC BAA 3107, ancestor strain
[37] = ATCCBAA3107, Pseudomonas aeruginosa ATCC BAA-3107 (PA-SEN)
[38] = ATCCBAA3107, Pseudomonas aeruginosa LESB 58 (PA-MDR)

## CN(C)[C@@H]1C(O)=C(C(N)=O)C(=O)[C@@]2(O)C(O)=C3C(=O)c4c(O)c(NC(=O)CN5CCCC5)cc(F)c4C[C@H]3C[C@@H]12 [Eravacycline]
[1]; [7]
  Relative MIC: 2
[1]; [8]
  Relative MIC: 1
[1]; [9]
  Relative MIC: 2
[1]; [10]
  Relative MIC: 2
[1]; [11]
  Relative MIC: 1
[1]; [12]
  Relative MIC: 2
[1]; [13]
  MIC: 2 µg/mL
[1]; [14]
  MIC: 2 µg/mL
[1]; [15]
  MIC: 0.25 µg/mL
[1]; [16]
  MIC: 0.125 µg/mL
[1]; [17]
  MIC: 0.25 µg/mL
[2]; [18]
  MIC of ancestor: 1 µg/mL
[2]; [19]
  MIC of ancestor: 0.125 µg/mL
[2]; [20]
  MIC of ancestor: 0.125 µg/mL
[2]; Escherichia coli NCTC 13846 (EC-MDR), ancestor strain
  MIC of ancestor: 1 µg/mL
[2]; [21]
  MIC: 0.125 µg/mL
[2]; [22]
  MIC: 1 µg/mL
[3]; Acinetobacter baumannii ATCC 17978 (AB-SEN), ancestor strain
  MIC of ancestor: 0.0625 µg/mL
[3]; [23]
  MIC of ancestor: 0.0625 µg/mL
[3]; Acinetobacter baumannii ATCC BAA 1605 (AB-MDR), ancestor strain
  MIC of ancestor: 2 µg/mL
[3]; Acinetobacter baumannii ATCC BAA 1605 (AB-MDR), ancestor strain, sheet fig 2a
  MIC of ancestor: 2 µg/mL
[3]; [24]
  MIC: 0.0625 µg/mL
[3]; [25]
  MIC: 2 µg/mL
[4]; K. pneumoniae ATCC 10031 (KP-SEN), ancestor strain
  MIC of ancestor: 0.0312 µg/mL
[4]; [26]
  MIC of ancestor: 0.0312 µg/mL
[4]; Klebsiella pneumoniae ATCC 700603 (KP-MDR), ancestor strain
  MIC of ancestor: 4 µg/mL
[4]; Klebsiella pneumoniae ATCC 700603 (KP-MDR), ancestor strain, sheet fig 2a
  MIC of ancestor: 4 µg/mL
[4]; [27]
  MIC: 0.0312 µg/mL
[4]; [28]
  MIC: 4 µg/mL
[5]; [29]
  Relative MIC: 8
[5]; [30]
  Relative MIC: 16
[5]; [31]
  Relative MIC: 8
[5]; Acinetobacter baumannii ATCC BAA 1605 (AB-MDR), evolved line 1 versus ancestor
  Relative MIC: 4
[5]; Acinetobacter baumannii ATCC BAA 1605 (AB-MDR), evolved line 2 versus ancestor
  Relative MIC: 4
[5]; Acinetobacter baumannii ATCC BAA 1605 (AB-MDR), evolved line 3 versus ancestor
  Relative MIC: 8
[5]; [32]
  MIC: 0.5 µg/mL
[5]; [33]
  MIC: 1 µg/mL
[5]; [34]
  MIC: 0.5 µg/mL
[5]; read-out: MIC of evolved line, Acinetobacter baumannii ATCC BAA 1605 (AB-MDR), evolved line 1
  MIC: 8 µg/mL
[5]; read-out: MIC of evolved line, Acinetobacter baumannii ATCC BAA 1605 (AB-MDR), evolved line 2
  MIC: 8 µg/mL
[5]; read-out: MIC of evolved line, Acinetobacter baumannii ATCC BAA 1605 (AB-MDR), evolved line 3
  MIC: 16 µg/mL
[6]; [35]
  MIC of ancestor: 4 µg/mL
[6]; [36]
  MIC of ancestor: 4 µg/mL
[6]; [37]
  MIC: 4 µg/mL
[6]; [38]
  MIC: 32 µg/mL

## CNC(C)C1CCC(N)C(OC2C(N)CC(N)C(OC3OCC(C)(O)C(NC)C3O)C2O)O1 (stereo not drawn) [Gentamicin]
[1]; [7]
  Relative MIC: 8
[1]; [8]
  Relative MIC: 4
[1]; [9]
  Relative MIC: 4
[1]; [10]
  Relative MIC: 16
[1]; [11]
  Relative MIC: 16
[1]; [12]
  Relative MIC: 8
[1]; [13]
  MIC: 8 µg/mL
[1]; read-out: MIC of evolved line, E. coli NCTC 13846 (EC-MDR), evolved line 2
  MIC: 4 µg/mL
[1]; [14]
  MIC: 4 µg/mL
[1]; [15]
  MIC: 16 µg/mL
[1]; [16]
  MIC: 16 µg/mL
[1]; [17]
  MIC: 8 µg/mL
[2]; [18]
  MIC of ancestor: 1 µg/mL
[2]; EC-MDR, Escherichia coli NCTC 13846, ancestor strain
  MIC of ancestor: 1 µg/mL
[2]; [19]
  MIC of ancestor: 1 µg/mL
[2]; [20]
  MIC of ancestor: 1 µg/mL
[2]; [21]
  MIC: 1 µg/mL
[2]; [22]
  MIC: 1 µg/mL
[3]; AB-SEN, Acinetobacter baumannii ATCC 17978, ancestor strain
  MIC of ancestor: 0.5 µg/mL
[3]; [23]
  MIC of ancestor: 0.5 µg/mL
[3]; [24]
  MIC: 0.5 µg/mL
[3]; [25]
  MIC: > 32 µg/mL
[4]; KP-SEN, Klebsiella pneumoniae ATCC 10031, ancestor strain
  MIC of ancestor: 0.25 µg/mL
[4]; [26]
  MIC of ancestor: 0.25 µg/mL
[4]; [27]
  MIC: 0.25 µg/mL
[4]; [28]
  MIC: 16 µg/mL
[5]; [29]
  Relative MIC: 32
[5]; [30]
  Relative MIC: 16
[5]; [31]
  Relative MIC: 64
[5]; [32]
  MIC: 16 µg/mL
[5]; [33]
  MIC: 8 µg/mL
[5]; [34]
  MIC: 32 µg/mL
[6]; [35]
  MIC of ancestor: 1 µg/mL
[6]; [36]
  MIC of ancestor: 1 µg/mL
[6]; [37]
  MIC: 1 µg/mL
[6]; [38]
  MIC: > 32 µg/mL
